Measurements from US6423689B1, “Peptidyl calcium channel blockers” (Warner-Lambert Company, priority 1997, dated 2002).
pIC50: −log10 of the molar value.

Target: T1, N-type Ca2+ channels in IMR-32 cells (Homo sapiens, UniProt Q00975)
T1 construct: host or cells: IMR-32 cells, differentiated with dibutyryl cAMP and bromodeoxyuridine
Experiment: Inhibition of N-type calcium flux in IMR-32 cells (Indo-1 fluorescence, nitrendipine present)
Format: cell-based
Conditions: for inhibition at 1 µM / inhibition at 10 µM: IMR-32; for pIC50: IMR-32 cells, 5 μM nitrendipine, K+ depolarization
Summary of the method: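 With L-type flux blocked by 5 μM nitrendipine, N-type Ca2+ entry was read as the Indo-1 emission ratio (400/490 nm, excitation 350 nm) at 30° C after KCl depolarization.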

T1 sequence (Q00975 whole entry): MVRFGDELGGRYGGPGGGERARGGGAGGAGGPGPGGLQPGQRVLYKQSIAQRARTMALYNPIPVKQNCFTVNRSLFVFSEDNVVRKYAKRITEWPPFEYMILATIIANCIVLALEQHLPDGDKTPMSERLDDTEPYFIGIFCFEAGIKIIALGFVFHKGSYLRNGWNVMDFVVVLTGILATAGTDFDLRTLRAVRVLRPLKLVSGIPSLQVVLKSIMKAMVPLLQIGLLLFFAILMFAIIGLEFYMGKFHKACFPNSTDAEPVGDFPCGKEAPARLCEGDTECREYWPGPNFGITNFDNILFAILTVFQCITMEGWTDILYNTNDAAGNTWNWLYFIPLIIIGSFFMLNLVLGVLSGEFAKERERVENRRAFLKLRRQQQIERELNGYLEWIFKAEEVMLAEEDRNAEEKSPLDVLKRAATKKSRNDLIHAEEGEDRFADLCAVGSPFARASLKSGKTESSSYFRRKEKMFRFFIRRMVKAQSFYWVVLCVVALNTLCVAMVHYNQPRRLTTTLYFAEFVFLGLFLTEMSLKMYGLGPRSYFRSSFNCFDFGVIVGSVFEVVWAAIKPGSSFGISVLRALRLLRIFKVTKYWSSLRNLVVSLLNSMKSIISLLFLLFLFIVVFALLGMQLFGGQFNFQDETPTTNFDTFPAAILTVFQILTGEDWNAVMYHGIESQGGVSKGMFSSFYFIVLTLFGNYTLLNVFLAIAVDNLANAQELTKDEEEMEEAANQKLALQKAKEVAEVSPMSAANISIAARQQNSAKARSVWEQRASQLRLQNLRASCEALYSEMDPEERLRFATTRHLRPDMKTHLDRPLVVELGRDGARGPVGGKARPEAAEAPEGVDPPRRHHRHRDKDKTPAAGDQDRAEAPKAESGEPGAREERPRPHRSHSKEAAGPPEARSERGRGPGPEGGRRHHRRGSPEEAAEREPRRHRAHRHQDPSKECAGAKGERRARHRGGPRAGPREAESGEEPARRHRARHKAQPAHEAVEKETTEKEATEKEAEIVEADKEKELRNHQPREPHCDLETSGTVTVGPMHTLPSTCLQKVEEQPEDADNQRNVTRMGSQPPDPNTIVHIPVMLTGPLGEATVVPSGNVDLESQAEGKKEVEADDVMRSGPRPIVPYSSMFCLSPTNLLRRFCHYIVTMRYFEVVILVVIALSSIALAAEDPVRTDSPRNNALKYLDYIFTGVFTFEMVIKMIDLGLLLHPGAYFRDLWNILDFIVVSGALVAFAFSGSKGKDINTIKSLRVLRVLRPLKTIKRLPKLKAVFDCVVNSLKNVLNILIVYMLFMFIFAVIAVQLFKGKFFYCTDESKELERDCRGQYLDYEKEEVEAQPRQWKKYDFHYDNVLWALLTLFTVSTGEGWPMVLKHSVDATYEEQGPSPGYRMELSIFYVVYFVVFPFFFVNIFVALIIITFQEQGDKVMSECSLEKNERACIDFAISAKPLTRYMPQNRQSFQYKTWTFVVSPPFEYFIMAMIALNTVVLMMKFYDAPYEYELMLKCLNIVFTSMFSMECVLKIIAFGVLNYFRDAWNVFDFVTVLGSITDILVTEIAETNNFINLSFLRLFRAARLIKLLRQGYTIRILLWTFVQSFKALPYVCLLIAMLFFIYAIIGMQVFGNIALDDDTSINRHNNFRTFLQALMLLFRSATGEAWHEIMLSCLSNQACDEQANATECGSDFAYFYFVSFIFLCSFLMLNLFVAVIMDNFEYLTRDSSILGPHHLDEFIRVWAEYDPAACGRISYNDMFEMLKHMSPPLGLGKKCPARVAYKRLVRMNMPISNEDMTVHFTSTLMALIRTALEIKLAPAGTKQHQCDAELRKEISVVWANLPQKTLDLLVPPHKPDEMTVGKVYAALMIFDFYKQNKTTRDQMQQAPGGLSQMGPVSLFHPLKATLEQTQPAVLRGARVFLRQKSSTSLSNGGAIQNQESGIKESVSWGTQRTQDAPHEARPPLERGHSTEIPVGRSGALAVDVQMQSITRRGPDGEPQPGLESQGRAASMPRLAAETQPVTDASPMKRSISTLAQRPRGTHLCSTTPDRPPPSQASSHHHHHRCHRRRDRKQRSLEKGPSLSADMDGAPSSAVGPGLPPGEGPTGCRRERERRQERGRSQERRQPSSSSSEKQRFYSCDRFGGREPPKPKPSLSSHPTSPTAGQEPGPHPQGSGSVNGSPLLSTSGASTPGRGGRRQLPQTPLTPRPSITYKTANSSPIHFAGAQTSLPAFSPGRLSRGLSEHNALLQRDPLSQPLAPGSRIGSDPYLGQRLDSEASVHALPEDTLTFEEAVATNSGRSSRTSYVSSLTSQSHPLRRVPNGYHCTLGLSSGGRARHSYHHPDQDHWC
T1 sequence (P54289 25-956 partner limits assumed): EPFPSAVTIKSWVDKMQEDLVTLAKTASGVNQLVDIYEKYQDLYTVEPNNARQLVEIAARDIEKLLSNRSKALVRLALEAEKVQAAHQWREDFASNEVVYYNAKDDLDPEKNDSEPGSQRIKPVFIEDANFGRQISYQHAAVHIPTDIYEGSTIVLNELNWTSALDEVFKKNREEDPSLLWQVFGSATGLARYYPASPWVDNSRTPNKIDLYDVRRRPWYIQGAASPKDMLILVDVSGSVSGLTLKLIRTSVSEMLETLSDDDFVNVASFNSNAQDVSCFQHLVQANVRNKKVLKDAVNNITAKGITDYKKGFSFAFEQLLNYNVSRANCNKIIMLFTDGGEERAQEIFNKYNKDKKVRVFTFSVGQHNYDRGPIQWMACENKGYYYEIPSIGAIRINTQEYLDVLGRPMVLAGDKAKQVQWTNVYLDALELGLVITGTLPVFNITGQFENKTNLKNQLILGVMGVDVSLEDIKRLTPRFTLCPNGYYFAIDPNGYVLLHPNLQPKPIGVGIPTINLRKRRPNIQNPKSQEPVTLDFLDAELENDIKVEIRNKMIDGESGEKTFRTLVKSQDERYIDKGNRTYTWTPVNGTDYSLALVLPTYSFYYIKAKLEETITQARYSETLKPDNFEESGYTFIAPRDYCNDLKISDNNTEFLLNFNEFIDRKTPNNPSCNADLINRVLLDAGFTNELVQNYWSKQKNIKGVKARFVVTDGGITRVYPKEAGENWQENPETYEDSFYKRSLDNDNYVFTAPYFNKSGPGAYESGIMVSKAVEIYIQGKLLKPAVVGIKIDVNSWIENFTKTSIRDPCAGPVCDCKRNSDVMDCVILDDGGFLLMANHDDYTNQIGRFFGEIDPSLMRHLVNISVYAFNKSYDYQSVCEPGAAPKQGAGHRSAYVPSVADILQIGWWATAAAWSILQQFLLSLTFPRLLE
T1 sequence (P54289 957-1103 partner limits assumed): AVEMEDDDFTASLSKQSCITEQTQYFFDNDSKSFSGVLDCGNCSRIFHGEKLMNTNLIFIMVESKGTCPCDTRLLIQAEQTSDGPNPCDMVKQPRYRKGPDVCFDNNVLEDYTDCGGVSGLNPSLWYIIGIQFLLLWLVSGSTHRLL
T1 sequence (P54284 whole entry partner): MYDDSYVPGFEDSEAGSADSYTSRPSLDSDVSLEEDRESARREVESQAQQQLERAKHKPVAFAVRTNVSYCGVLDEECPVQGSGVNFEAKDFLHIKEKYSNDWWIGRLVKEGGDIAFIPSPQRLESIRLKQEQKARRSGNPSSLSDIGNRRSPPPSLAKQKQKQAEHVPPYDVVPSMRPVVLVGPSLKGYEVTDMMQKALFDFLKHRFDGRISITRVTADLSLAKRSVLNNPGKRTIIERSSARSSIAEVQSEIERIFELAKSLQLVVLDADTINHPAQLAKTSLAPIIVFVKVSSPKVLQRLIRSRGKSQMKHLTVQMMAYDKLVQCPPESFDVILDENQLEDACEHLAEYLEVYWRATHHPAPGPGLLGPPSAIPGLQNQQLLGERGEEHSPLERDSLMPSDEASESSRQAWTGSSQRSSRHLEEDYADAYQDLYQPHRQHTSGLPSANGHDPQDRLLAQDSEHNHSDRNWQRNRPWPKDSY

Inhibition of Calcium Flux in IMR-32 Cells % Inhibition at 1 μM	inhibition at 1 µM	pIC50	other results	Compound
52%			Inhibition of Calcium Flux in IMR-32 Cells % Inhibition at 10 μM: 35%	Cc1ccc(NC(=O)N[C@@H](CC(C)C)C(=O)N[C@@H](Cc2ccc(OCc3ccccc3)cc2)C(=O)OC(C)(C)C)cc1 (relative stereo) [Example 58, [S-(R*,R*)]-3-(4-Benzyloxy-phenyl)-2-[4-methyl-2-(3-p-tolyl-ureido)-pentanoylamino]propionic acid tert-butyl ester]
34%			Inhibition of Calcium Flux in IMR-32 Cells % Inhibition at 10 μM: 74%	COc1cccc(NC(=O)N[C@@H](CC(C)C)C(=O)N[C@@H](Cc2ccc(OCc3ccccc3)cc2)C(=O)OC(C)(C)C)c1 (relative stereo) [Example 57, [S-(R*,R*)]-3-(4-Benzyloxy-phenyl)-2-{2-[3-(3-methoxy-phenyl)-ureido]-4-methyl-pentanoylamino}-propionic acid tert-butyl ester]
24%				CC(C)C[C@H](NC(=O)Nc1ccc(Cl)c(C(F)(F)F)c1)C(=O)N[C@@H](Cc1ccc(OCc2ccccc2)cc1)C(=O)OC(C)(C)C (relative stereo) [Example 78, [S-(R*,R*)]-3-(4-Benzyloxy-phenyl)-2-{2-[3-(4-chloro-3-trifluoromethyl-phenyl)-ureido]-4-methyl-pentanoylamino}-propionic acid tert-butyl ester]
55%				CC(C)C[C@H](NC(=O)Nc1ccc(Cl)cc1Cl)C(=O)N[C@@H](Cc1ccc(OCc2ccccc2)cc1)C(=O)OC(C)(C)C (relative stereo) [Example 82, [S-(R*,R*)]-3-(4-Benzyloxy-phenyl)-2-{2-[3-(2,4-dichloro-phenyl)-ureido]-4-methyl-pentanoylamino}-propionic acid tert-butyl ester]
	33%			CC(C)C[C@H](NC(=O)N[C@H](C)c1ccccc1)C(=O)N[C@@H](Cc1ccc(OCc2ccccc2)cc1)C(=O)OC(C)(C)C [Example 63, 3-(4-Benzyloxy-phenyl)-(S)-2-{4-methyl-(S)-2-[3-[(R)-1-phenyl-ethyl]-ureido]-pentanoylamino}-propionic acid tert-butyl ester]
27%				COc1ccc(C(=O)N[C@@H](CC(C)C)C(=O)N[C@@H](Cc2ccc(OCc3ccccc3)cc2)C(=O)OC(C)(C)C)cc1 (relative stereo) [Example 95, [S-(R*,R*)]-3-(4-Benzyloxy-phenyl)-2-[2-(4-methoxy-benzoylamino)-4-methyl-pentanoylamino]-propionic acid tert-butyl ester]
19%				CC(C)C[C@H](NC(=O)c1ccc2ccccc2c1)C(=O)N[C@@H](Cc1ccc(OCc2ccccc2)cc1)C(=O)OC(C)(C)C (relative stereo) [Example 99, [S-(R*,R*)]-3-(4-Benzyloxy-phenyl)-2-{4-methyl-2-[(naphthalene-2-carbonyl)-amino]pentanoylamino}-propionic acid tert-butyl ester]
		5.54		CC(C)C[C@H](NC(=O)N1CCCCCC1)C(=O)N[C@@H](Cc1ccc(OCc2ccccc2)cc1)C(=O)NCCCN1CCCC1 [Example 268, [S-(R*,R*)]-Azepane-1-carboxylic acid {1-[2-(4-benzyloxy-phenyl)-1-(3-pyrrolidin-1-yl-propylcarbamoyl)-ethylcarbamoyl]-3-methyl-butyl}-amide]
		5.51		CC(C)C[C@H](NC(=O)N1CCCCCC1)C(=O)N[C@@H](Cc1ccc(OCc2ccccc2)cc1)C(=O)NCc1ccncc1 [Example 178, [S-(R*,R*)]-Azepane-1-carboxylic acid (1-{2-(4-benzyloxy-phenyl)-1-[(pyridin-4-ylmethyl)carbamoyl]-ethylcarbamoyl}-3-methyl-butyl)-amide]
23%				CC(C)C[C@H](NC(=O)N1CCCCCC1)C(=O)N[C@@H](Cc1ccc(OCc2ccccc2)cc1)C(=O)NCC(C)NC(C)C (stereo partly shown) [Example 242]
	49%	5.96	inhibition at 10 µM: 81%	CC(C)C[C@H](NC(=O)N1CCCCCC1)C(=O)N[C@@H](Cc1ccc(OCc2ccccc2)cc1)C(=O)Nc1ccc(CCO)cc1 [Example 211, [S-(R*,R*)]-Azepane-1-carboxylic acid (1-{2-(4-benzyloxy-phenyl)-1-[4-(2-hydroxy-ethyl)-phenylcarbamoyl]-ethylcarbamoyl}-3-methyl-butyl)-amide]
	39%	5.82		COc1ccc(NC(=O)[C@H](Cc2ccc(OCc3ccccc3)cc2)NC(=O)[C@H](CC(C)C)NC(=O)N2CCCCCC2)cc1 [Example 210, [S-(R*,R*)]-Azepane-1-carboxylic acid {1-[2-(4-benzyloxy-phenyl)-1-(4-methoxy-phenylcarbamoyl)-ethylcarbamoyl]-3-methyl-butyl}-amide]
	48%		inhibition at 10 µM: 89%	CCC(C)NC(=O)C(Cc1ccc(OCc2ccccc2)cc1)NC(=O)C(CC(C)C)NC(=O)N1CCCCCC1 (stereo not shown) [Example 243, Azepane-1-carboxylic acid {1-[2-(4-benzyloxy-phenyl)-1-sec-butylcarbamoyl-ethylcarbamoyl]-3-methyl-butyl}-amide]
			Inhibition of Calcium Flux in IMR-32 Cells % Inhibition at 10 μM: 61%	CC(C)C[C@H](NC(=O)C(F)(F)C(F)(F)F)C(=O)C[C@H](Cc1ccc(OCc2ccccc2)cc1)C(=O)OC(C)(C)C (relative stereo) [Example 127, [S-(R*,R*)]-2-(4-Benzyloxy-benzyl)-7-methyl-4-oxo-5-(2,2,3,3,3-pentafluoro-propionylamino)-octanoic acid tert-butyl ester]
		5.74		CC(C)C[C@H](NC(=O)N1CCCCCC1)C(=O)N[C@@H](Cc1ccc(OCc2ccccc2)cc1)C(=O)NC(C)(C)CO [Example 266, Azepane-1-carboxylic acid {(S)-1-[(S)-2-(4-benzyloxy-phenyl)-1-(2-hydroxy-1,1-dimethyl-ethylcarbamoyl)-ethylcarbamoyl]-3-methyl-butyl}-amide]
	62%	6.13	inhibition at 10 µM: 95%	CSCCC(CO)NC(=O)[C@H](Cc1ccc(OCc2ccccc2)cc1)NC(=O)C(CC(C)C)NC(=O)N1CCCCCC1 (stereo in doubt) [Example 238, Azepane-1-carboxylic acid {(R)-1-[(S)-2-(4-benzyloxy-phenyl)-(S)-1-(1-hydroxymethyl-3-methylsulfanyl-propylcarbamoyl)-ethylcarbamoyl]-3-methyl-butyl}-amide]
24%				CC(C)C[C@H](NC(=O)NCc1ccccc1)C(=O)N[C@@H](Cc1ccc(OCc2ccccc2)cc1)C(=O)OC(C)(C)C (relative stereo) [Example 60, [S-(R*,R*)]-3-(4-Benzyloxy-phenyl)-2-[2-(3-benzyl-ureido)-4-methyl-pentanoylamino]-propionic acid tert-butyl ester]
	42%	5.85	inhibition at 10 µM: 51%	CC(C)C[C@H](NC(=O)N1CCCCCC1)C(=O)N[C@@H](Cc1ccc(OCc2ccccc2)cc1)C(=O)Nc1cccc(C(F)(F)F)c1 [Example 214, [S-(R*,R*)]-Azepane-1-carboxylic acid {1-[2-(4-benzyloxy-phenyl)-1-(3-trifluoromethyl-phenylcarbamoyl)-ethylcarbamoyl]-3-methyl-butyl}-amide]
